Measured values as given in patent US20230124862A1, “BISMUTH THIOL COMPOUNDS AND COMPOSITIONS AND METHODS OF TREATING MICROBIAL CO-INFECTIONS” (Microbion Corporation, priority 2020, published 2023).
Marks after values point to notes of the source that are not given here.

Experiments:
[1] = test system: S. aureus ATCC 29213; assay: MIC control strain; settings: QC organism, Example 13
[2] = test system: B. cenocepacia; assay: MIC testing of CF isolates; type: cell-based, Burkholderia cenocepacia; settings: strain AU197
[3] = test system: Candida albicans; assay: Antifungal broth microdilution (Example 13); type: cell-based; settings: Candida albicans, 24 h, read-out: MIC0, C. albicans MMX 7445, FLU-R, VORI-R, complete inhibition
[4] = test system: Achromobacter spp. biofilm; assay: Activity against biofilms; type: cell-based; settings: tested up to 250 μg/mL
Excerpt: A dose response is also apparently associated with both compounds (FIG. 21).

[5] = test system: Candida spp.; assay: Broth microdilution MIC (Example 11); type: cell-based, C. parapsilosis, C. albicans, C. glabrata, C. tropicalis

Q: For `CC(S)C(C)S.[Bi]` (stereo not shown) [BisBDT, bismuth-2,3-butanedithiol], which “MIC 24 hr” value [1] is on record?
A: The value was 1^a.

Q: And the MIC [2]?
A: The MIC was 4 µg/mL.

Q: What about the MIC [3] of the same compound?
A: The MIC was 2 µg/mL.

Q: And the “reduction in viable biofilm cells” value [4]?
A: The value was 5 log.

Q: What about the MIC ([5]; 24 h, C. albicans MMX 7039, Sensitive, incubation 24 hr) of the same compound?
A: Its MIC is 2 µg/mL.

Q: And the MIC ([5]; 24 h, C. albicans MMX 7055, Sensitive, incubation 24 hr)?
A: Its MIC is 2 µg/mL.

Q: And the MIC ([5]; 24 h, C. glabrata MMX 7318, FLU^R, incubation 24 hr)?
A: Its MIC is 0.25 µg/mL.

Q: What about the MIC ([5]; 24 h, C. glabrata miX 7086, FLU^R, incubation 24 hr) of the same compound?
A: Its MIC is 0.5 µg/mL.

Q: And the MIC ([5]; 24 h, C. parapsilosis MMX 2323 (ATCC 22019), QC, incubation 24 hr)?
A: The MIC was 0.5 µg/mL.

Q: And the MIC ([5]; 24 h, C. tropicalis MMX 7247, FLU^R, incubation 24 hr)?
A: Its MIC is 4 µg/mL.

Q: What about the MIC ([5]; 24 h, C. tropicalis MMX 7248, FLU^R, incubation 24 hr) of the same compound?
A: The MIC was 4 µg/mL.

Q: What about the MIC ([5]; 24 h, C. tropicalis MMX 7360, FLU^R, incubation 24 hr) of the same compound?
A: Its MIC is 2 µg/mL.

Q: What about the MIC ([5]; 48 h, C. albicans MMX 7039, Sensitive, incubation 48 hr) of the same compound?
A: The MIC was 2 µg/mL.

Q: What about the MIC ([5]; 48 h, C. albicans MMX 7055, Sensitive, incubation 48 hr) of the same compound?
A: Its MIC is 2 µg/mL.

Q: And the MIC ([5]; 48 h, C. glabrata MMX 7318, FLU^R, incubation 48 hr)?
A: The MIC was 0.5 µg/mL.

Q: What about the MIC ([5]; 48 h, C. glabrata miX 7086, FLU^R, incubation 48 hr) of the same compound?
A: Its MIC is 1 µg/mL.

Q: And the MIC ([5]; 48 h, C. parapsilosis MMX 2323 (ATCC 22019), QC, incubation 48 hr)?
A: Its MIC is 1 µg/mL.

Q: What about the MIC ([5]; 48 h, C. parapsilosis MMX 7370, FLU^R, incubation 48 hr) of the same compound?
A: The MIC was 0.5 µg/mL.

Q: And the MIC ([5]; 48 h, C. parapsilosis MMX 7555, FLU^R, incubation 48 hr)?
A: The MIC was 0.5 µg/mL.

Q: What about the MIC ([5]; 48 h, C. tropicalis MMX 7247, FLU^R, incubation 48 hr) of the same compound?
A: The MIC was 4 µg/mL.

Q: What about the MIC ([5]; 48 h, C. tropicalis MMX 7248, FLU^R, incubation 48 hr) of the same compound?
A: The MIC was 8 µg/mL.

Q: What about the MIC ([5]; 48 h, C. tropicalis MMX 7360, FLU^R, incubation 48 hr) of the same compound?
A: The MIC was 2 µg/mL.
